Test results taken from ChEMBL document CHEMBL1201862, “PubChem BioAssay data set” (2004).
The source made the active and inactive calls.

Experiments:
[1] = molecular target: T1, RNA-binding protein pos-1 (Caenorhabditis elegans, UniProt G5EF15); assay: disruptors of C. elegans POS-1 RNA interaction – biochemical, fluorescence polarization, dose response (AID 1964);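 also: purified POS-1 fused to maltose binding protein made in E. coli; potency of compounds blocking POS-1 binding to fluorescent RNA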
T1 sequence (G5EF15 whole entry): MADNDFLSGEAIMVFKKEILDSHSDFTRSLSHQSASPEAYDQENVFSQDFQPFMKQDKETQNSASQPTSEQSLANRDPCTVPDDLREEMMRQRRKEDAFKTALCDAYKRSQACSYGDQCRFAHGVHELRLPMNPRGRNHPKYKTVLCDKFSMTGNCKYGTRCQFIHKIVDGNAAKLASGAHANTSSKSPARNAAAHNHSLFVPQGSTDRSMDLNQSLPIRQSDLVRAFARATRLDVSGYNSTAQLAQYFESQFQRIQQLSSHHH

[2] = molecular target: T2, Sentrin-specific protease 1 (Homo sapiens, UniProt Q9P0U3); assay: Dose response confirmation of small molecule inhibitors of the catalytic domain of the SUMO protease, SENP1 in a FRET assay.; format: functional; details: read-out: IC50_Mean
T2 sequence (Q9P0U3 whole entry): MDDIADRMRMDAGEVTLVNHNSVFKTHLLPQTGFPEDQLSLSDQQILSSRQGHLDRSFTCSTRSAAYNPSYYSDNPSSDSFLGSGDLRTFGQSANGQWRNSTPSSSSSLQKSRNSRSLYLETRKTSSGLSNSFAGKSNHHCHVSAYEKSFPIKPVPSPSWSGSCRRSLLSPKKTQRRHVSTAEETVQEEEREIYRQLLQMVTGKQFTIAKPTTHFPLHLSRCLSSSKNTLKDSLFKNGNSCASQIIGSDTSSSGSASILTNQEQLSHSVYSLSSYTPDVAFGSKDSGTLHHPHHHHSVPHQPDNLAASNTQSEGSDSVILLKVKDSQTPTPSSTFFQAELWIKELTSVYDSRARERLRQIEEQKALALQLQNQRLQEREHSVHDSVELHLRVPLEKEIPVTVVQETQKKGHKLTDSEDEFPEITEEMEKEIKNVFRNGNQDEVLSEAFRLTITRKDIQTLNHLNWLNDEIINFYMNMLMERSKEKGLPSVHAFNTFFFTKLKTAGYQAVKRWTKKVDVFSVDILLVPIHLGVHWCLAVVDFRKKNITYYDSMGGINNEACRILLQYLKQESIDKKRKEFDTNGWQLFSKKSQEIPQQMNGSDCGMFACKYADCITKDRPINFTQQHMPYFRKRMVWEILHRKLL

[3] = molecular target: T3, Zinc finger protein mex-5 (Caenorhabditis elegans, UniProt Q9XUB2); assay: potency of MEX-5 RNA-binding blockers – biochemical, C. elegans, fluorescence polarization, dose response (AID 1960)
T3 sequence (Q9XUB2 whole entry): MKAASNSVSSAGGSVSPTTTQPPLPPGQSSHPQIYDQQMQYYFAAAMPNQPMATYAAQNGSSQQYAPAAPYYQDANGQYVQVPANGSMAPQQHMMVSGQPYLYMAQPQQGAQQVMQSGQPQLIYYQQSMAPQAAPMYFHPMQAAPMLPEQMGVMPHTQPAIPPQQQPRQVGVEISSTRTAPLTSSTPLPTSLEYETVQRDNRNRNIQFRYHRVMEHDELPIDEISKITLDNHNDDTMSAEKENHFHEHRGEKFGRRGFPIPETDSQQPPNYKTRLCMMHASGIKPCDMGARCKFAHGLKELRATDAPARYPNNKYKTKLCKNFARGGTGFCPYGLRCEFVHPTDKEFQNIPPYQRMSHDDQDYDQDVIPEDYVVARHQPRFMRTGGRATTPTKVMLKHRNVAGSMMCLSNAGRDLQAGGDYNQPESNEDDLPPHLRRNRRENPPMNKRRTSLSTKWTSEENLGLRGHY

[4] = molecular target: T4, Rac GTPase-activating protein 1 (Homo sapiens, UniProt Q9H0H5); assay: blockers of MgcRacGAP-driven Rac1 GTP hydrolysis – biochemical, ADP Hunter fluorescence, primary and confirmatory, confirmation (AID 624330); format: functional
T4 sequence (Q9H0H5 whole entry): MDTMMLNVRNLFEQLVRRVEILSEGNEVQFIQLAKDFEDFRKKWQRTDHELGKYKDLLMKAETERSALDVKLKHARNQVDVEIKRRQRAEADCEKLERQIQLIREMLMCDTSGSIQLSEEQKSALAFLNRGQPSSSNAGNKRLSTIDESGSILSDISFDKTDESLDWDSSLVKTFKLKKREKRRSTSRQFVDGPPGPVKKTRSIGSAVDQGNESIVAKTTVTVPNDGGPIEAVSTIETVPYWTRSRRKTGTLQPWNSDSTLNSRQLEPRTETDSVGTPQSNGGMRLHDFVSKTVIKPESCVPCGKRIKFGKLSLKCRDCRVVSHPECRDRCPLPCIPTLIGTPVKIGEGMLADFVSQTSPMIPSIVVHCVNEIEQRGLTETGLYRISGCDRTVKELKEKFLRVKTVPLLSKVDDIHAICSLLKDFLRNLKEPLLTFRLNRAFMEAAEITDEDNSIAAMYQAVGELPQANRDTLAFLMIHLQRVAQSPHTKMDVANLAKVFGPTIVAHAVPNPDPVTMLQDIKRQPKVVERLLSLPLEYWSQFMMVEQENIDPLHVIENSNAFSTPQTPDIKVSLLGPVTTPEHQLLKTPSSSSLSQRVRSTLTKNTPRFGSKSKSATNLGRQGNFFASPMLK

[5] = molecular target: T2, Sentrin-specific protease 1; assay: SENP1 catalytic domain blockers, concentration series – biochemical, kinetic FRET, dose response (AID 651697); format: functional; details: read-out: IC50_Mean
[6] = molecular target: Hepatocyte nuclear factor 4-alpha (Homo sapiens, UniProt P41235); format: functional, cell-based;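 also: biochemical luminescence-based dose-response counterscreen measuring inhibition of HNF4 dimerization, run alongside a screen for blockers of ABHD5–perilipin-5 interaction; split luciferase complementation of HNF4 fusion proteins in cell lysate measuring dimerization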
Chain of Hepatocyte nuclear factor 4-alpha (P41235 whole entry, the tested form may be a part): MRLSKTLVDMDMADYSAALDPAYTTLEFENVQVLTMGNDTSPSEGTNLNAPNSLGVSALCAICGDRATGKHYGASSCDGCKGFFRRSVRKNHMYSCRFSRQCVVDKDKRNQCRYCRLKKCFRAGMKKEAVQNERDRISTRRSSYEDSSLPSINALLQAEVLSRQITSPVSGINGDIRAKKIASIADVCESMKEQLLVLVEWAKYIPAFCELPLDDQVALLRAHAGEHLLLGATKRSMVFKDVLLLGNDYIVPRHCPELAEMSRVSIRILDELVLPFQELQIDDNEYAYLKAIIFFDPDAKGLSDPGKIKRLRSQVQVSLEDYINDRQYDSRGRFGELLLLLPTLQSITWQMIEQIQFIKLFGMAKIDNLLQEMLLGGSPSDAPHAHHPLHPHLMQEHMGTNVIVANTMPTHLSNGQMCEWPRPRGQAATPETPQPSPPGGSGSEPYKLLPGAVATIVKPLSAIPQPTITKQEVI

[7] = Luminescence Cell-Based Dose Retest to Confirm Inhibitors of Cancer Stem Cells. [Related pubchem assays (depositor defined):AID2717, AID2721]; format: functional; details: Homo sapiens
[8] = tested on: Vero; assay: cells; format: functional; details: Chlorocebus sabaeus
[9] = molecular target: T5, Heat shock factor protein 1 (Mus musculus, UniProt P38532); assay: enhancement of HSF1-driven luciferase signal – cell-based, NIH3T3, luminescence, dose retest, confirmation (AID 435004); format: functional;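 also: stress induced by proteasome inhibitor MG132 added 30 min after compound; luciferase reporter driven by HSF1 response element in NIH3T3 cells; actives raise luminescence as potentiators of the MG132 stress response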
T5 sequence (P38532 whole entry): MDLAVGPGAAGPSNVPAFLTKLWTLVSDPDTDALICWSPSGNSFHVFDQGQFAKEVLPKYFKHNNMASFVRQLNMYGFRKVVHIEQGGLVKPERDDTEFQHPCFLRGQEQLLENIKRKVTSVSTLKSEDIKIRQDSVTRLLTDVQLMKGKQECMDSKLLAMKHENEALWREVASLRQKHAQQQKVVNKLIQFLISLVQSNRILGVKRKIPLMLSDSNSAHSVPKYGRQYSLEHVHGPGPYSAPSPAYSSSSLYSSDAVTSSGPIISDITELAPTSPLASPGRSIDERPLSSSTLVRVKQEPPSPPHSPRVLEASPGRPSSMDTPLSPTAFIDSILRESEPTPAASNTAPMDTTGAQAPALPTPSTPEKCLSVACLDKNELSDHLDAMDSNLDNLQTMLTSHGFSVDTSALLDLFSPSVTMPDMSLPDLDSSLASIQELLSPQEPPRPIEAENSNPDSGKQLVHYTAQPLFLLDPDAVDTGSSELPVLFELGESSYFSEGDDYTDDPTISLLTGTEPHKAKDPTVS

[10] = molecular target: T6, Acyl-homoserine lactone acylase PvdQ (Pseudomonas aeruginosa (strain LESB58), UniProt Q9I194); assay: PvdQ acylase enzyme activity blockers – biochemical, fluorescence, plate reader and imaging, cherry-picks, dose response (AID 493231)
T6 sequence (Q9I194 whole entry): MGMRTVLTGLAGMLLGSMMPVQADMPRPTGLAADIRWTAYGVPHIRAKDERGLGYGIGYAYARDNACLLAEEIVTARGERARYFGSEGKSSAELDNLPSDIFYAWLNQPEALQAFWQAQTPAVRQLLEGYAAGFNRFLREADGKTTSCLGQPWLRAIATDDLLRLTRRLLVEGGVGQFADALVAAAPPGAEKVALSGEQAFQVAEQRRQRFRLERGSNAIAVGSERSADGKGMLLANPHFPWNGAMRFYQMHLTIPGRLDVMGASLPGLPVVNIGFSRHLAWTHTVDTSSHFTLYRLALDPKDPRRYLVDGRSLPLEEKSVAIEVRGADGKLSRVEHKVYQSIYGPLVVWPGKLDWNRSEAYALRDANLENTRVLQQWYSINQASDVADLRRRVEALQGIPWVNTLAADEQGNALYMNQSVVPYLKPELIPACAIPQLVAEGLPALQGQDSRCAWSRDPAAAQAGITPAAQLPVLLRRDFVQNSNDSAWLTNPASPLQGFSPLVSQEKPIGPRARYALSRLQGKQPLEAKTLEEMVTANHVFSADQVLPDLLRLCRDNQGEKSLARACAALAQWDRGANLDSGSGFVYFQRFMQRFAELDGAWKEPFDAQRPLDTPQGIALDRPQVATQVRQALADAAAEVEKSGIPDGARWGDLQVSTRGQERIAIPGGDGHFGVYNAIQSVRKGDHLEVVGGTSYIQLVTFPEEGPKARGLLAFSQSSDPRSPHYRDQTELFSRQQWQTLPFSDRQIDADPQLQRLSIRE

[11] = Luminescence Cell-Based Dose Confirmation HTS to Identify Inhibitors of Platelet Dense Granule Release. [Related pubchem assays: 1663 (Primary HTS), 1678 (Summary of Project)]; format: functional
[12] = molecular target: Peroxisome proliferator-activated receptor gamma/Nuclear receptor coactivator 3 (Homo sapiens, UniProt P37231); assay: TR-FRET dose response biochemical High Throughput Screening assay for agonists of the steroid receptor coactivator 3 (SRC-3) recruitment by the peroxisome proliferator-activated receptor gamma (PPAR gamma): non-selective agonists. [Related pubchem assays: 1301 (Confirmation screen.), 1048 (Primary screen.)]; format: functional
[13] = molecular target: Peroxisome proliferator-activated receptor gamma/Nuclear receptor coactivator 2 (Homo sapiens, UniProt P37231); assay: (§1) TR-FRET dose response biochemical High Throughput Screening assay for agonists of the steroid receptor coactivator 2 (SRC-2) recruitment by the peroxisome proliferator-activated receptor gamma (PPAR gamma): non-selective agonists. [Related pubchem assays: 1297, 1032 ]; format: functional
Chain of Peroxisome proliferator-activated receptor gamma/Nuclear receptor coactivator 2 (P37231 whole entry): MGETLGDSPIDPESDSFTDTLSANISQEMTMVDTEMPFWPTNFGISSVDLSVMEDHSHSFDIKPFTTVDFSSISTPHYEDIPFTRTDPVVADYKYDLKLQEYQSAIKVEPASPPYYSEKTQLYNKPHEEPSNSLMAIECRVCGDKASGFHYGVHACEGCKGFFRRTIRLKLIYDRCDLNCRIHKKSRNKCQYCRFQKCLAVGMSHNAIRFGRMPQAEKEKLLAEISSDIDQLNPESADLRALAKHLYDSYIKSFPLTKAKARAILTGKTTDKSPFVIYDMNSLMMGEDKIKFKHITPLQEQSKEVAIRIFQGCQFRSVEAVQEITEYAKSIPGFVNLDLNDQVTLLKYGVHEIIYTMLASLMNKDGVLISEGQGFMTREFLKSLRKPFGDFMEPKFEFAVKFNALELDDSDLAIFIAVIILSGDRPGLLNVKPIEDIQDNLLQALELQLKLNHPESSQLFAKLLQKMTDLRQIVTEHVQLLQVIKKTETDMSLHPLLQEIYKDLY
Chain of Peroxisome proliferator-activated receptor gamma/Nuclear receptor coactivator 2 (Q15596 whole entry, further chain): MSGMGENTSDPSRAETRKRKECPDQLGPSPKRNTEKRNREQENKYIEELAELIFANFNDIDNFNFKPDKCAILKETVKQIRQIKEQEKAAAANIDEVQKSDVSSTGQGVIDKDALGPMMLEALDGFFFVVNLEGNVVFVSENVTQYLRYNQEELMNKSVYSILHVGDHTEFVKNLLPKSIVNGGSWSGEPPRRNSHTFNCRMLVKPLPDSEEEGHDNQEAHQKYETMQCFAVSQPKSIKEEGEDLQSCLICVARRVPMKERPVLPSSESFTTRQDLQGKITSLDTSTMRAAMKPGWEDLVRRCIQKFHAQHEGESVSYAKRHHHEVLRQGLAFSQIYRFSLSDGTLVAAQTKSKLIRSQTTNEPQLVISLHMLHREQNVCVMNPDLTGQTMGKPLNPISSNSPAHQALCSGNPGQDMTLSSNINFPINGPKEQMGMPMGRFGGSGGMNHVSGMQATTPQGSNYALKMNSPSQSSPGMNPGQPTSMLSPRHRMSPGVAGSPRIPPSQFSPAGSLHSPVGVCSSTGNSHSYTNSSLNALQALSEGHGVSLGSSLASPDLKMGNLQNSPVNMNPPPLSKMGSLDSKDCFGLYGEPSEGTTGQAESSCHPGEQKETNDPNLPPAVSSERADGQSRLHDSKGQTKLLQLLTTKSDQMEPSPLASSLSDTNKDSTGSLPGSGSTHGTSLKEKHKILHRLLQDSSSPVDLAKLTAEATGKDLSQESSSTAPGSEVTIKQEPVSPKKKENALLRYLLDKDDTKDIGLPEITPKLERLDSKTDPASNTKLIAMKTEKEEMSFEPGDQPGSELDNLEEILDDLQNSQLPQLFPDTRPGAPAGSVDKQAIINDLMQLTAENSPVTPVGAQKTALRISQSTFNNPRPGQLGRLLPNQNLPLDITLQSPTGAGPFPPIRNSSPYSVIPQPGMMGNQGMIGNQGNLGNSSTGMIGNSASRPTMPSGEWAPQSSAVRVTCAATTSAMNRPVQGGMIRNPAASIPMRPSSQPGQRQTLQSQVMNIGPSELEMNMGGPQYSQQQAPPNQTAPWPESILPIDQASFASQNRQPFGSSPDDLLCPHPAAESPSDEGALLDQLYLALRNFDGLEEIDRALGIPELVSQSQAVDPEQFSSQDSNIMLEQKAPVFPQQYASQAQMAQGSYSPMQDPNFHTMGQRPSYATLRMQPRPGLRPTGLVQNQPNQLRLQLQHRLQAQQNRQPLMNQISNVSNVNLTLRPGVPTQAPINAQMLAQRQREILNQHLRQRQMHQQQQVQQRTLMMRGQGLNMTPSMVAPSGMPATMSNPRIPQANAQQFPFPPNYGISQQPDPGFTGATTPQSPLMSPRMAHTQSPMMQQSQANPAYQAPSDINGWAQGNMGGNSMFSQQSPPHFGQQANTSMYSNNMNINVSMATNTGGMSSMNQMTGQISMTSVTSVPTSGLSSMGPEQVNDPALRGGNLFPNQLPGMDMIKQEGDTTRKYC

[14] = molecular target: Peroxisome proliferator-activated receptor gamma/Nuclear receptor coactivator 1 (Homo sapiens, UniProt P37231); assay: as §1, with “1 (SRC-1)” for “2 (SRC-2)”, “assays (depositor defined):AID1300, AID1808, AID504735, AID631]” for “assays: 1297, 1032 ]”; format: protein assay
[15] = molecular target: Beta-galactosidase (Escherichia coli, UniProt Q8VNN2); assay: detection-enzyme interference by beta-gal modulators – biochemical, E. coli enzyme, set 3, artefact control for CCR6 antagonist project, dose response (AID 504712); format: functional
Chain of Beta-galactosidase (Q8VNN2 whole entry): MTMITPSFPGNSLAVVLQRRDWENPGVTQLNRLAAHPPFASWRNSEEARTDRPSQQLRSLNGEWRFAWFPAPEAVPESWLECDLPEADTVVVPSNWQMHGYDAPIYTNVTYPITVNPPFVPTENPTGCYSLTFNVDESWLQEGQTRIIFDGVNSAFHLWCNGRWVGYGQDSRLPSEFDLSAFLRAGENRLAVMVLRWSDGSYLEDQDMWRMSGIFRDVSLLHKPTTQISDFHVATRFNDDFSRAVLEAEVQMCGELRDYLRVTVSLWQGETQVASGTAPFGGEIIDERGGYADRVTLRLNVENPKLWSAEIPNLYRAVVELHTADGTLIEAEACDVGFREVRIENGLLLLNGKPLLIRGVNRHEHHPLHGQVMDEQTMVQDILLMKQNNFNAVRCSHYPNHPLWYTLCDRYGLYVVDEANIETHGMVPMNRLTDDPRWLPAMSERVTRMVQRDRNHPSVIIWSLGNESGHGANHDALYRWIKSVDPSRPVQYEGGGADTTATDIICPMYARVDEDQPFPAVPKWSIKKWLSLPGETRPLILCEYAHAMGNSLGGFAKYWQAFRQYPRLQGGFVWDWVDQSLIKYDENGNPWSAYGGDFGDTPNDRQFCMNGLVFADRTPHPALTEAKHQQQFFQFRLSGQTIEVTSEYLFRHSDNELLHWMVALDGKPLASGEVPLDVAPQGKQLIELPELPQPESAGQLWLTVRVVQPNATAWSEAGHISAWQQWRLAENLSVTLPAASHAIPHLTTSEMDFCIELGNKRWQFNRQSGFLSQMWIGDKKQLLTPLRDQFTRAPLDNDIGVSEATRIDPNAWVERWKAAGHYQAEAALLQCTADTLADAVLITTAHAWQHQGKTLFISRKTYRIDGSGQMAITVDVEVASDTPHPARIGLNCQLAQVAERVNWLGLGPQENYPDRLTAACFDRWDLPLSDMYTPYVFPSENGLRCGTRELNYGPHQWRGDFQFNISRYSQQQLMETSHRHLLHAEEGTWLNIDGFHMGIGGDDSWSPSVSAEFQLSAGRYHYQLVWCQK

[16] = molecular target: Luciferin 4-monooxygenase (Photinus pyralis, UniProt P08659); assay: inhibition of purified Photinus pyralis luciferase – biochemical, luminescence, dose response (AID 1891)
Chain of Luciferin 4-monooxygenase (P08659 whole entry): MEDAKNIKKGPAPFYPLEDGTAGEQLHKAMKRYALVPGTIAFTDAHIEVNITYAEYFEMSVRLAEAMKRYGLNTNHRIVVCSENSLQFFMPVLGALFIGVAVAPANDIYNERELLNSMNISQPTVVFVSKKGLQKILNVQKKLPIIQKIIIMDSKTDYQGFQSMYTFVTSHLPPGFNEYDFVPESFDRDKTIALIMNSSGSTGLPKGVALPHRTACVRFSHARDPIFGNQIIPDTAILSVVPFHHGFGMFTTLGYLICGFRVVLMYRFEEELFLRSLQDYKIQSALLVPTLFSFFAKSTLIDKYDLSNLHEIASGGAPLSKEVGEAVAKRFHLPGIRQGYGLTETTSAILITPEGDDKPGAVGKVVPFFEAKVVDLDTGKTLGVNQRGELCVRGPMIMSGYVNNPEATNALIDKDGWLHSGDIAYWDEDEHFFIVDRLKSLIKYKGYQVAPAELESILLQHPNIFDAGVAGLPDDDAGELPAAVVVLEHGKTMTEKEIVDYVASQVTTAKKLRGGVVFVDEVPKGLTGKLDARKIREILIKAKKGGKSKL

[17] = molecular target: Beta Lactamase (Pseudomonas aeruginosa, UniProt Q932Y6); assay: BLA reporter interference, concentration series – BLA reporter cells, FRET fluorescence, artefact control for NOD2-RIPK2 interaction inhibitor project, dose response (AID 651552); format: functional, cell-based
Chain of Beta Lactamase (Q932Y6 whole entry, the tested form may be a part): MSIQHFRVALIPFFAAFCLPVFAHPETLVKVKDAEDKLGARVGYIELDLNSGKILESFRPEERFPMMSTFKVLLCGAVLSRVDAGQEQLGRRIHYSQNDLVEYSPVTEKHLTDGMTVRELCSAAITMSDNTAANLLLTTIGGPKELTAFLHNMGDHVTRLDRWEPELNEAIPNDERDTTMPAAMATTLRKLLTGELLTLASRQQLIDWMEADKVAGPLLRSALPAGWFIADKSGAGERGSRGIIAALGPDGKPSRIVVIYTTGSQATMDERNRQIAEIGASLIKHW

[18] = Fluorescence-based cell-based high throughput dose response assay for inhibitors of the interaction of nucleotide-binding oligomerization domain containing 2 (NOD2) and the receptor-interacting serine-threonine kinase 2 (RIPK2).; format: functional; details: Homo sapiens
[19] = molecular target: T7, Sentrin-specific protease 8 (Homo sapiens, UniProt Q96LD8); format: functional
T7 sequence (Q96LD8 whole entry): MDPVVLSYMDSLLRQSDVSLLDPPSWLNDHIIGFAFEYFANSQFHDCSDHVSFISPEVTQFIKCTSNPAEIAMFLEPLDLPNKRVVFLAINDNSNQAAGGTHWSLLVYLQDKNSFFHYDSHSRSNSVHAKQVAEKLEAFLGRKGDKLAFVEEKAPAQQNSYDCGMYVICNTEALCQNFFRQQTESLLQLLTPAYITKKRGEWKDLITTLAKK

[20] = molecular target: T7, Sentrin-specific protease 8; format: functional; remark: listed apart in the source

OC1=C2Sc3ccc(Cl)cc3N=C2CCC1
EC50 [1]: 18.4 µM (active)
IC50 [2]: 17.1 µM (active)
EC50 [3]: 8.9 µM (inconclusive)
IC50 [4]: 42 µM (active)
IC50 [5]: 13.7 µM (active)

CCOC(=O)/C(=C\c1ccc(Cl)cc1)c1nc(O)c2c(C)c(C)sc2n1
IC50 [6]: 1.56 µM (active)
AC50 [7]: 0.981 µM (active)
CC50 [8]: 16.5 µM (active)
EC50 [9]: > 260 µM (inconclusive)

O=C1/C(=C/c2ccc([N+](=O)[O-])cc2)Oc2cc(O)ccc21
IC50 [2]: 10.1 µM (active)
AC50 [10]: 53.7 µM (active)
IC50 [5]: 38.4 µM (inactive)
EC50 [9]: 175 µM (active)

Cc1ccccc1N1C(=O)CC(Sc2nnc(-c3ccccc3)o2)C1=O (centres undefined)
EC50 [11]: > 112 µM (not active)
EC50 [12]: > 79.4 µM (not active)
EC50 [13]: 26.2 µM (not active)
EC50 [14]: > 26.5 µM (inactive)
IC50 [15]: > 66.6 µM (inactive)
EC50 [16]: > 112 µM (not active)
IC50 [17]: 12.7 µM (inactive)
IC50 [18]: 4.12 µM (active)
EC50 [9]: 57.4 µM (active)

C[C@@H](OC(=O)c1nc[nH]c1C(=O)N1CCc2ccccc2C1)c1ccccc1
IC50 [19]: 6.73 µM (active)
IC50 [20]: 80.9 µM (inactive)
